# Measurements published in patent US20020028255A1, “Pesticide treatment” (priority 1998, published 2002).
# Key:
# [1] = test system: Maize (Pioneer 3394) seeds; test: Damage (bleaching of the shoot) to maize seeds bathed in herbicide solutions, control vs hypochlorite-sterilized seed; format: in vivo; conditions: for damage to maize: low concentration
# Description: Maize (Pioneer 3394) seeds were placed in a solution of 1% (w/w) sodium hypochlorite for 30 seconds, then rinsed thoroughly for 5 minutes with sodium bicarbonate solution (5% w/w).
# Replicates of 20 seeds from each treatment were placed in petri dishes and bathed in 25 ml of the following solutions for 24 hours (covered and incubated at 25° C. in a growth cabinet).
# After 24 hours the seeds were removed from the bathing solutions, rinsed thoroughly in water and planted (in green light- as some of the seeds had started to produce a coleoptile which is sensitive to daylight). Seeds were planted in duplicate in 10 cm×10 cm pots containing non-sterile loam and were overhead watered 3 times daily.
# Assessments were made 7 and 14 DAT (days after treatment).
# [2] = Decomposition of DKN in bleach, followed by TLC; format: physicochemical; conditions: 1 g in 25 ml bleach (14 to 15% chlorine), ambient temperature, after 30 minutes
# Description: 2-Cyano-3-cyclopropyl-1-2-methylsulphonyl-4-trifluoromethylphenyl)propan-1,3-dione(DKN:1 g) was added to 25 ml of bleach (containing 14 to 15% chlorine). The mixture was stirred at ambient temperature. After 3 minutes a clear solution formed. […] The main product was the corresponding benzoic acid.
# [3] = Vials of dione solution in water (500 ppt) treated with water containing chlorine (ppb); format: physicochemical; conditions: dione 500 ppt, ambient temperature
# Description: (B) Vials containing 1 ml of solutions in water of the dione used in (A) (at a concentration of 500 ppt) were treated at ambient temperature with 1 ml of water containing 0.1 or 0.5 ppb concentrations of chlorine.
# [4] = Kinetics of decomposition of the dione in water in the presence of chlorine (ppm); format: physicochemical
# Source text: (A) The kinetics of the decomposition of 2-cyano-3-cyclopropyl-1-(2-methylsulphonyl-4-trifluoromethylphenyl)propan-1,3-dione in water was studied. The following Table summarizes the results obtained at pH7 or pH9 in the presence of 0.1 or 0.5 ppm of chlorine. The percentages given are of degradation of the dione to the corresponding benzoic acid, 2-methylsulphonyl-4-trifluoromethyl-benzoic acid.
# [5] = Cleaning of a contaminated 1000 l tank with sodium hypochlorite solution; format: physicochemical; conditions: tank wet with 0.02% (w/w) suspension; 10 l of 0.01% (w/w) sodium hypochlorite, one hour
# Source text: A 1000 l container or tank was used to prepare a suspension of dione pesticide (2-cyano-3-cyclopropyl- 1-(2-methylsulphonyl-4-trifluoromethylphenyl)propan-1,3-dione). The suspension was used to destroy the weeds in a crop growing area. The container was then still wet with aqueous suspension of 0.02% (w/w) of the pesticide.
# 10 l of 0.01% (w/w) solution of sodium hypochlorite is poured into the tank and stirred (so as to contact the whole inner surface of the container) and left for one hour.
# Example 3 is repeated except that the pesticide is an isoxazole (5-cyclopropyl-4-(2-methylsulphonyl-4-trifluoromethylbenzoyl)isoxazole;IFT) and the pH of the hypochlorite solution is 8.5 (adjusted using NaOH).
# [6] = control seed, 1.0 μg ml^−1, bathed 24 hours
# [7] = control seed, 10.0 μg ml^−1, bathed 24 hours
# [8] = sterilized seed (1% sodium hypochlorite), 1.0 μg ml^−1, bathed 24 hours
# [9] = sterilized seed (1% sodium hypochlorite), 10.0 μg ml^−1, bathed 24 hours
smiles,measurement,setting,value
"CS(=O)(=O)c1cc(C(F)(F)F)ccc1C(=O)c1cnoc1C1CC1 [IFT, 5-cyclopropyl-4-(2-methylsulphonyl-4-trifluoromethylbenzoyl)isoxazole]",% Damage (bleaching of the shoot),"[1]; control seed, 0.1 μg ml^−1, bathed 24 hours",0%
same,% Damage (bleaching of the shoot),[1]; [6],20%
same,% Damage (bleaching of the shoot),[1]; [7],98%
same,damage to maize,[1]; 0.1 μg ml^−1,No damage
same,% Damage (bleaching of the shoot),"[1]; sterilized seed (1% sodium hypochlorite), 0.1 μg ml^−1, bathed 24 hours",0%
same,% Damage (bleaching of the shoot),[1]; [8],13%
same,% Damage (bleaching of the shoot),[1]; [9],100%
CS(=O)(=O)c1cc(C(F)(F)F)ccc1C(=O)C(C#N)C(=O)C1CC1 (stereo not drawn) [DKN],DKN remaining by thin layer chromatography,[2],no DKN was detected
same,% Damage (bleaching of the shoot),[1]; [6],0%
same,% Damage (bleaching of the shoot),[1]; [7],0%
same,% Damage (bleaching of the shoot),"[1]; control seed, 100.0 μg ml^−1, bathed 24 hours",87%
same,damage to maize,[1]; 1 μg ml^−1,No damage
same,% Damage (bleaching of the shoot),[1]; [8],0%
same,% Damage (bleaching of the shoot),[1]; [9],0%
same,% Damage (bleaching of the shoot),"[1]; sterilized seed (1% sodium hypochlorite), 100.0 μg ml^−1, bathed 24 hours",11%
same,degradation of the dione,"[3]; pH 5, Cl2 0.1 ppb, 15 min",100%
same,degradation of the dione,"[3]; pH 5, Cl2 0.5 ppb, 15 min",100%
same,degradation of the dione,"[3]; pH 7, Cl2 0.1 ppb, 15 min",100%
same,degradation of the dione,"[3]; pH 7, Cl2 0.5 ppb, 15 min",100%
same,degradation of the dione,"[3]; pH 9, Cl2 0.1 ppb, 60 min",>90%
same,degradation of the dione,"[3]; pH 9, Cl2 0.5 ppb, 15 min",100%
same,degradation of the dione to the corresponding benzoic acid,"[4]; pH 7, Cl2 0.1 ppm, 15 min",100%
same,degradation of the dione to the corresponding benzoic acid,"[4]; pH 7, Cl2 0.5 ppm, 15 min",100%
same,degradation of the dione to the corresponding benzoic acid,"[4]; pH 9, Cl2 0.1 ppm, 15 min",50%
same,degradation of the dione to the corresponding benzoic acid,"[4]; pH 9, Cl2 0.1 ppm, 60 min",100%
same,degradation of the dione to the corresponding benzoic acid,"[4]; pH 9, Cl2 0.5 ppm, 15 min",100%
same,disappearance of pesticide from the tank,[5],All of the dione pesticide disappeared
